Laboratory results from ChEMBL document CHEMBL5705888, “Substrate specificity and inhibitors of LRRK2, a protein kinase mutated in Parkinson's disease” (Biochem J, 2009).

How the values were obtained:
[1] = biological target: Mitogen-activated protein kinase 11 (Homo sapiens) (UniProt Q15759); assay: Inhibition of p38beta MAPK (unknown origin) at 10 uM incubated for 30 mins in presence of [gamma-33P]ATP by multidrop micro reagent based assay relative to control; values are per cent of control
[2] = biological target: Glycogen synthase kinase-3 beta (Homo sapiens) (UniProt P49841); assay: Inhibition of GSK3beta (unknown origin) at 1 uM incubated for 30 mins in presence of [gamma-33P]ATP by multidrop micro reagent based assay relative to control; values are per cent of control
[3] = biological target: T1, Eukaryotic elongation factor 2 kinase (Homo sapiens) (UniProt O00418); assay: Inhibition of EF2K (unknown origin) at 1 uM incubated for 30 mins in presence of [gamma-33P]ATP by multidrop micro reagent based assay relative to control
T1 sequence (whole entry): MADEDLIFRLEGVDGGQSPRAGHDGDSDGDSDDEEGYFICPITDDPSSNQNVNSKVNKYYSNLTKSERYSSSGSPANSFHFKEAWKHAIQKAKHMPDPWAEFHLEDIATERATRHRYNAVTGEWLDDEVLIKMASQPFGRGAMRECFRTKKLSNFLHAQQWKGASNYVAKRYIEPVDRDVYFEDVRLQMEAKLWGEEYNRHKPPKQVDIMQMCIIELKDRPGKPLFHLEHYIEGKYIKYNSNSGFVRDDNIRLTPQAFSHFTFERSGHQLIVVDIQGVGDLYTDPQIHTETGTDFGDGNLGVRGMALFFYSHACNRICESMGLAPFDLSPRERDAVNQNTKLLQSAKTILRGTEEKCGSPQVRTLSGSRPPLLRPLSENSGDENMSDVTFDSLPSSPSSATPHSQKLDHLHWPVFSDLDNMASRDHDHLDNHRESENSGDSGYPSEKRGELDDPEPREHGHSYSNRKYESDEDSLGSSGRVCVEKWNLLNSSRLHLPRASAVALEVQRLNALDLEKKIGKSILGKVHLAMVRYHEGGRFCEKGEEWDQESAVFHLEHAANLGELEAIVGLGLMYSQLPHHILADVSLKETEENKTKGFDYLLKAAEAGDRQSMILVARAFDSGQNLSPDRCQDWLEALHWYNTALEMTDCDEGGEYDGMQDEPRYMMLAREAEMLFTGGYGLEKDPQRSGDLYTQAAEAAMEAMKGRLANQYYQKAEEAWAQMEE

[4] = biological target: Insulin-like growth factor 1 receptor (Homo sapiens) (UniProt P08069); assay: Inhibition of IGF-1R (unknown origin) at 1 uM incubated for 30 mins in presence of [gamma-33P]ATP by multidrop micro reagent based assay relative to control; values are per cent of control
[5] = biological target: Ribosomal protein S6 kinase alpha-3 (Homo sapiens) (UniProt P51812); assay: Inhibition of RSK2 (unknown origin) at 1 uM incubated for 30 mins in presence of [gamma-33P]ATP by multidrop micro reagent based assay relative to control; values are per cent of control
[6] = biological target: T2, Inhibitor of nuclear factor kappa-B kinase subunit epsilon (Homo sapiens) (UniProt Q14164); assay: Inhibition of IKKepsilon (unknown origin) at 1 uM incubated for 30 mins in presence of [gamma-33P]ATP by multidrop micro reagent based assay relative to control
T2 sequence (whole entry): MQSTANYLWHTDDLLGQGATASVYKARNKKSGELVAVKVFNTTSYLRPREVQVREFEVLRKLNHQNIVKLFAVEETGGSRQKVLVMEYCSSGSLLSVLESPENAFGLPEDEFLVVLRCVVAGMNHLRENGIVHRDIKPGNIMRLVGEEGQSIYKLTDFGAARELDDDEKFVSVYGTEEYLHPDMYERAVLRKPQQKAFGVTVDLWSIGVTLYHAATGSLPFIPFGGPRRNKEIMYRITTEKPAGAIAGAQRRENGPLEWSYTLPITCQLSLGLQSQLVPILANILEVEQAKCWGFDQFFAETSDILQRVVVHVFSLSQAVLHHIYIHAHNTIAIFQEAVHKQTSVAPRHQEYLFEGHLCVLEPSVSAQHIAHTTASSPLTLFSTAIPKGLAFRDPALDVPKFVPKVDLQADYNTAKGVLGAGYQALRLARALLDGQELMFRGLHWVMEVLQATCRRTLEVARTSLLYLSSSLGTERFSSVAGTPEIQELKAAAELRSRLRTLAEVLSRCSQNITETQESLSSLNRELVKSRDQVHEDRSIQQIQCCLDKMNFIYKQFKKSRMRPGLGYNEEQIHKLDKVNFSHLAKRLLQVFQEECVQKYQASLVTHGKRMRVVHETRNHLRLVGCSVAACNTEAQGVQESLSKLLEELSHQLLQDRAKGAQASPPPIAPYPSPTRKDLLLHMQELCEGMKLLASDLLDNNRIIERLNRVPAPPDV

[7] = biological target: Tyrosine-protein kinase BTK (Homo sapiens) (UniProt Q06187); assay: Inhibition of BTK (unknown origin) at 1 uM incubated for 30 mins in presence of [gamma-33P]ATP by multidrop micro reagent based assay relative to control
[8] = biological target: Aurora kinase B (Homo sapiens) (UniProt Q96GD4); assay: Inhibition of Aurora B kinase (unknown origin) at 1 uM incubated for 30 mins in presence of [gamma-33P]ATP by multidrop micro reagent based assay relative to control; values are per cent of control
[9] = biological target: T3, MAP kinase-activated protein kinase 5 (Homo sapiens) (UniProt Q8IW41); assay: Inhibition of PRAK (unknown origin) at 1 uM incubated for 30 mins in presence of [gamma-33P]ATP by multidrop micro reagent based assay relative to control; values are per cent of control
T3 sequence (whole entry): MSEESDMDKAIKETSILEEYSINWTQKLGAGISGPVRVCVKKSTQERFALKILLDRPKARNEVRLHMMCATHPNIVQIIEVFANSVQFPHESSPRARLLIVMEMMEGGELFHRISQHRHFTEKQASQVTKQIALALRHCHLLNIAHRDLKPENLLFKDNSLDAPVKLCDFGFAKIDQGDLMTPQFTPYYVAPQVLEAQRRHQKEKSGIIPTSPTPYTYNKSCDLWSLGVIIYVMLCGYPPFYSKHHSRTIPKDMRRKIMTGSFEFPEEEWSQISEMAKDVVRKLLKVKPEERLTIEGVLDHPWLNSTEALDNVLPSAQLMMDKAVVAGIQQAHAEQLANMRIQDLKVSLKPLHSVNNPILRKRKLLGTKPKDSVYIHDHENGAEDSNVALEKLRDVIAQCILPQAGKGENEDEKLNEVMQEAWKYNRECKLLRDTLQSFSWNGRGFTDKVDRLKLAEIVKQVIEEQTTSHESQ

[10] = biological target: Fibroblast growth factor receptor 1 (Homo sapiens) (UniProt P11362); assay: Inhibition of FGFR1 (unknown origin) at 1 uM incubated for 30 mins in presence of [gamma-33P]ATP by multidrop micro reagent based assay relative to control
Chain of Fibroblast growth factor receptor 1 (Homo sapiens) (P11362 22-822 limits assumed): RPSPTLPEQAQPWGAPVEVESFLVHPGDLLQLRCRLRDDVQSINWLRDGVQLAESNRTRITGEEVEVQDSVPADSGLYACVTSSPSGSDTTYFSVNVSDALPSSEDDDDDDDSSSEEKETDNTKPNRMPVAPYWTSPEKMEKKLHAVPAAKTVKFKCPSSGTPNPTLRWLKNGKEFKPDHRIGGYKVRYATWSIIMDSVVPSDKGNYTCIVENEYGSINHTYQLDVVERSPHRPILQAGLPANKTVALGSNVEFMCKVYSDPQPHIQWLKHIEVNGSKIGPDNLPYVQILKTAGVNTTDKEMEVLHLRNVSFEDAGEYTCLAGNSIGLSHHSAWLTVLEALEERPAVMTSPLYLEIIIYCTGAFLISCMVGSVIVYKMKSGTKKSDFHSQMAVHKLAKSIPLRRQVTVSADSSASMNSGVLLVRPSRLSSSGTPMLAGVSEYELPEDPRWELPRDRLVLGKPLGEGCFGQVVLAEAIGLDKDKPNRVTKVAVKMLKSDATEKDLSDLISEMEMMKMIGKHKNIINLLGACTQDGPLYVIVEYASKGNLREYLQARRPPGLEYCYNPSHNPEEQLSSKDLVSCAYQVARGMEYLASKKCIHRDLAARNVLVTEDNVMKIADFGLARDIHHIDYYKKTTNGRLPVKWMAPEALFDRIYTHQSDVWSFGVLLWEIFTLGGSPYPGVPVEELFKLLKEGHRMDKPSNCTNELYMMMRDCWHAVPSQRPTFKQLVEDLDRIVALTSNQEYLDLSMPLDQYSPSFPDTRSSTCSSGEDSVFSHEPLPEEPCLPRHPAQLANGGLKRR

Chain of Ribosomal protein S6 kinase alpha-3 (Homo sapiens) (P51812 whole entry): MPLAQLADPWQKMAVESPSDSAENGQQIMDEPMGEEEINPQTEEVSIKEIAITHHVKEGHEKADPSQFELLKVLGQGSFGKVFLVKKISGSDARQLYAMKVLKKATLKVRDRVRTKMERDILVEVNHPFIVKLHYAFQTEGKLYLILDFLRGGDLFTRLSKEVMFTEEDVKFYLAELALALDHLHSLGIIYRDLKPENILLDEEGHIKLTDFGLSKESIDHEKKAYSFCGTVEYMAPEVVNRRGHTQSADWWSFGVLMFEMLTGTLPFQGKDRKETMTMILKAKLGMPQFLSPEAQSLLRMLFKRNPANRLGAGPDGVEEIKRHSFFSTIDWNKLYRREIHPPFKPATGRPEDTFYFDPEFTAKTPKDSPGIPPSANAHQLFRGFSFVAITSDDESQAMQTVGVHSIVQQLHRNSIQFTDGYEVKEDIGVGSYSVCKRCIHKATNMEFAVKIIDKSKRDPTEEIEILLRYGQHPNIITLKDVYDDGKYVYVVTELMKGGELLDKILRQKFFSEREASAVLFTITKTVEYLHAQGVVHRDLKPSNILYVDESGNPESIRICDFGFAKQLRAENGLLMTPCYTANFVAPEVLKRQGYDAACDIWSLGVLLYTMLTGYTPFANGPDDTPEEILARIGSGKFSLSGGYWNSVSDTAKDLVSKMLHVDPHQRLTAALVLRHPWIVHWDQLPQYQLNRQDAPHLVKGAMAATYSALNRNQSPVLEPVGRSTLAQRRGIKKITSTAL
Chain of Tyrosine-protein kinase BTK (Homo sapiens) (Q06187 whole entry): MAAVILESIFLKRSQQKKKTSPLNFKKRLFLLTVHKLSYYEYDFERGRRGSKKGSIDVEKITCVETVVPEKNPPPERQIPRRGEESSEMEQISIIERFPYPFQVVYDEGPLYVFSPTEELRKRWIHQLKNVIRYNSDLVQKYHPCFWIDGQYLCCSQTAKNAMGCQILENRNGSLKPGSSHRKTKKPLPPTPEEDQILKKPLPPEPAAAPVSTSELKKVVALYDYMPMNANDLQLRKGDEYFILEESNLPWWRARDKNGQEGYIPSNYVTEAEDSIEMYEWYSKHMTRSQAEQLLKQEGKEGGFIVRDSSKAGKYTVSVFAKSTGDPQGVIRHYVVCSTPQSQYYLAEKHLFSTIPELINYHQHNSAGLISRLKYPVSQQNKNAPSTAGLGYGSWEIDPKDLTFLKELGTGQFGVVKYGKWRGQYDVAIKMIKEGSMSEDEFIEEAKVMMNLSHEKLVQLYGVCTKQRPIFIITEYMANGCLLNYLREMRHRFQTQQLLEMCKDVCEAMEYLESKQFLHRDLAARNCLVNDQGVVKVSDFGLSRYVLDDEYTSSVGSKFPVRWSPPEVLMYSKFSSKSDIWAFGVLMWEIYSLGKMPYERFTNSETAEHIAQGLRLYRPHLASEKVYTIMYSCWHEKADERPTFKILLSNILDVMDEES
Chain of Insulin-like growth factor 1 receptor (Homo sapiens) (P08069 31-736 limits assumed): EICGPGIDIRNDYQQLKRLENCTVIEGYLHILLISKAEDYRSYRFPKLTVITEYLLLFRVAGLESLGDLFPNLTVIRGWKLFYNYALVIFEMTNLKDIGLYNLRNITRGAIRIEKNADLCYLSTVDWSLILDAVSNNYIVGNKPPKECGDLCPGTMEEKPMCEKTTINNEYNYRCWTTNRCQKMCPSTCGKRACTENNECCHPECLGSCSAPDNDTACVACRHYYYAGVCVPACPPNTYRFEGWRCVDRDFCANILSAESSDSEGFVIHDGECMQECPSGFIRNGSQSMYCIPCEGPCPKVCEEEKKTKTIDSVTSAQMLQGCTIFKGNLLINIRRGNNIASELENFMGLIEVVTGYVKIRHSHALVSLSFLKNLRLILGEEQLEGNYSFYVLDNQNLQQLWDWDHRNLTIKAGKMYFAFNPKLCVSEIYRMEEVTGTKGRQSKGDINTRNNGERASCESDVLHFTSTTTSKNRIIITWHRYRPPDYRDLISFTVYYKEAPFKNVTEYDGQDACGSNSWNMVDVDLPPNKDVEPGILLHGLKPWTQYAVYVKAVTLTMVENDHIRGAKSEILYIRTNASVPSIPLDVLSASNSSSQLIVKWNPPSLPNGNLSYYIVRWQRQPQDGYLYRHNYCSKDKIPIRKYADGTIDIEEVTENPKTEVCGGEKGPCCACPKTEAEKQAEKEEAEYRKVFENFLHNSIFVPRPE
Chain of Insulin-like growth factor 1 receptor (Homo sapiens) (P08069 741-1367 limits assumed): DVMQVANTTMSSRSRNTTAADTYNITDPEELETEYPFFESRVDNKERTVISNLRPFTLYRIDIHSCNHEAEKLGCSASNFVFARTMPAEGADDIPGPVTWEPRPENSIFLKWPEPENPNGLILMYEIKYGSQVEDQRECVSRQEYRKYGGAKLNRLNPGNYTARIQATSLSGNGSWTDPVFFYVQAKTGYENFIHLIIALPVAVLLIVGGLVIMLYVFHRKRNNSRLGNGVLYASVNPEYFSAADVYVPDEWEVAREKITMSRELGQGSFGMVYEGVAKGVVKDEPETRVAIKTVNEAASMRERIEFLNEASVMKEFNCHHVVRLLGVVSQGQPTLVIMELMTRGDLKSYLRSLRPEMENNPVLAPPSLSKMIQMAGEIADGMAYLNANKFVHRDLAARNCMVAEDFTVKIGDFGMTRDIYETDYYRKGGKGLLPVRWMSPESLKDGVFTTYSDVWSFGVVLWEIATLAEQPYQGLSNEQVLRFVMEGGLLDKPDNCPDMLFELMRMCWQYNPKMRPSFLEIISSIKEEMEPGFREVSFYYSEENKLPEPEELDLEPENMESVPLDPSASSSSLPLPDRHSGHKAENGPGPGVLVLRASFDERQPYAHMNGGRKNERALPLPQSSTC
Chain of Glycogen synthase kinase-3 beta (Homo sapiens) (P49841 whole entry, looked up): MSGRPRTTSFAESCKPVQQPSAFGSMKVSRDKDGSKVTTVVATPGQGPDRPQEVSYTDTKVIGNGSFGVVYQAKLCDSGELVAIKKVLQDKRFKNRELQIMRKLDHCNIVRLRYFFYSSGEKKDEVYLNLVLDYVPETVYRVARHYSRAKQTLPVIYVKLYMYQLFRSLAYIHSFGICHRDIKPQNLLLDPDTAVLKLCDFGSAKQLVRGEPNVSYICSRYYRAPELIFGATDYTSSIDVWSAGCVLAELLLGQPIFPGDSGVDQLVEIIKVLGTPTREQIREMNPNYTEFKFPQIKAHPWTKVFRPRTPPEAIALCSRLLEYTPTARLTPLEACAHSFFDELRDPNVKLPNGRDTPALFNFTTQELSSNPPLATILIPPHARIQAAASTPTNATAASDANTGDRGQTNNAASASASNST
Chain of Aurora kinase B (Homo sapiens) (Q96GD4 whole entry): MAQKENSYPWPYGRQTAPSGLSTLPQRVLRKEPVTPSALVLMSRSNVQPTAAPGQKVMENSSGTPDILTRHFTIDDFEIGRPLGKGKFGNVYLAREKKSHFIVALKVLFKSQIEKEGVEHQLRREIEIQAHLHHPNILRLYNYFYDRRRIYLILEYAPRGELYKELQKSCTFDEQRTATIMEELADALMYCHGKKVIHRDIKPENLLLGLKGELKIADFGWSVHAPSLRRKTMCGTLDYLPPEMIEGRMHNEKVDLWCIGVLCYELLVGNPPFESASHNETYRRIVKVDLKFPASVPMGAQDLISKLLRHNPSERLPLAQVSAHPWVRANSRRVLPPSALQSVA
Chain of Mitogen-activated protein kinase 11 (Homo sapiens) (Q15759 whole entry): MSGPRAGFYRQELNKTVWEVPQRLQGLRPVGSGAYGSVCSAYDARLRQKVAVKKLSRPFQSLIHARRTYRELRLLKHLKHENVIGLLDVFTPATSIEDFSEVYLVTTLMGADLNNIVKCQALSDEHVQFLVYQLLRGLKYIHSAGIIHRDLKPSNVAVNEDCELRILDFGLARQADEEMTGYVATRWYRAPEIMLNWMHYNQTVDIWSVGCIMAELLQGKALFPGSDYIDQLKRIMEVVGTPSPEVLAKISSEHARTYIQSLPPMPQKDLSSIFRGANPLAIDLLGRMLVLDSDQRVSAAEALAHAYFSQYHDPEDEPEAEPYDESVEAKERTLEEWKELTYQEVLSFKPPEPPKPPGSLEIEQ

Compound: C[C@@H](N)[C@H]1CC[C@H](C(=O)Nc2ccncc2)CC1
- residual activity [1]: 101%

Compound: CCn1c(-c2nonc2N)nc2cnc(Oc3cccc(NC(=O)c4ccc(OCCN5CCOCC5)cc4)c3)cc21 [GSK-269962A]
- residual activity [2]: 12%
- residual activity [3]: 113%
- residual activity [4]: 104%
- residual activity [5]: 24%
- residual activity [6]: 66%
- inhibition [7]: 107%
- residual activity [8]: 36%

Compound: O=S(=O)(c1cccc2cnccc12)N1CCCNCC1 [FASUDIL]
- residual activity [1]: 111%

Compound: CCN(CC)CCNC(=O)c1c(C)[nH]c(/C=C2\C(=O)Nc3ccc(F)cc32)c1C
- residual activity [9]: 75%
- residual activity [5]: 41%
- residual activity [6]: 63%
- inhibition [10]: 29%
- residual activity [8]: 29%

Compound: Cc1cncc2cccc(S(=O)(=O)N3CCCNC[C@@H]3C)c12
- residual activity [2]: 72%
- residual activity [3]: 99%
- residual activity [4]: 113%
- residual activity [5]: 76%
- residual activity [6]: 80%
- inhibition [10]: 35%
- inhibition [7]: 82%
- residual activity [8]: 11%

Compound: CC1=C(C(=O)Nc2cc3cn[nH]c3cc2F)C(c2ccc(C(F)(F)F)cc2)CC(=O)N1 (stereo unspecified)
- residual activity [9]: 92%
- residual activity [2]: 93%
- residual activity [3]: 99%
- residual activity [4]: 97%
- residual activity [5]: 48%
- residual activity [6]: 109%
- inhibition [10]: 95%
- inhibition [7]: 66%
- residual activity [8]: 59%
